According to ChEMBL document CHEMBL1201862, “PubChem BioAssay data set” (2004):
Activity calls are given as the source filed them.

Experiments:
[1] = cytotoxicity in HEK-293T cells, dose response, cytotoxicity control for TCR NF-kB inhibitor project, luminescence, T-cell screen hits (AID 489026); assay type: functional, cell-based;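 further: cells exposed to compound about 14 hours before the viability readout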
J774.A1 = experiment: Confirmation of image-based Screening Assay for Inhibitors of Phagocytosis. [Related pubchem assays (depositor defined):AID1029, AID1643]; assay type: functional, cell-based; conditions: Mus musculus
[2] = biological target: T1, Heat shock factor protein 1 (Mus musculus, UniProt P38532); experiment: inhibition of MG132-induced HSE-luciferase signal, confirmation, cell-based, NIH3T3, luminescence, dose retest (AID 2382); assay type: functional;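 further: NIH3T3 fibroblasts with HSF1-driven luciferase reporter stressed by proteasome inhibitor MG132; luminescence from HSF1-driven luciferase expression after 8 hours of MG132 stress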
T1 sequence (P38532 whole entry): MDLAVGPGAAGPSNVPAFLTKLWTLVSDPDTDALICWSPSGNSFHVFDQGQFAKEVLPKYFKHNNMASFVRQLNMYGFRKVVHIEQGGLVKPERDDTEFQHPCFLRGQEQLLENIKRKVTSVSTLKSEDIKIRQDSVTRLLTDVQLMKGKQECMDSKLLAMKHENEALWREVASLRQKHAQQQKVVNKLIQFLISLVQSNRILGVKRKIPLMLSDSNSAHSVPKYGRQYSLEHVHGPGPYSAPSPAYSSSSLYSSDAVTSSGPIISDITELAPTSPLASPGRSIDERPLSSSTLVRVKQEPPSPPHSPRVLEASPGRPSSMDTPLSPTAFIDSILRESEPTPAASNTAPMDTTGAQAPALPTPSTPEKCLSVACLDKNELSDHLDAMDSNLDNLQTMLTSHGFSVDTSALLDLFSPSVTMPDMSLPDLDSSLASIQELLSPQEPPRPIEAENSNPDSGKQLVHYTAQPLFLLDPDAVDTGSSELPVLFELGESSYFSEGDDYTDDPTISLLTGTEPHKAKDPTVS

Vibrio harveyi [3] = experiment: Quorum Sensing, LuxS, LuxPQ Measured in Microorganism System Using Plate Reader - 2035-01_Inhibitor_DoseNoFile_DryPowder_Activity. [Related pubchem assays (depositor defined):AID2106]; assay type: functional, organism-based
Vibrio harveyi [4] = experiment: inhibitors of AI-2 quorum sensing in V. harveyi, dose response, LuxS, LuxPQ, dry powder, set 2 (AID 493072); assay type: functional, organism-based
[5] = control 3'UTR Renilla luciferase suppression, dose response, counter-screen for Shn3 inhibitor project, cell-based, Clone20-Shn3RL, cherry-picked (AID 624133); assay type: functional
[6] = biological target: T2, Type-1 angiotensin II receptor (Homo sapiens, UniProt P30556); experiment: AT1 receptor agonists, dose response, selectivity assay for APJ receptor agonist project, cell-based, uHTS hits (AID 488865); assay type: functional;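 further: beta-arrestin recruitment to AT1 measured by enzyme fragment complementation luminescence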
T2 sequence (P30556 whole entry): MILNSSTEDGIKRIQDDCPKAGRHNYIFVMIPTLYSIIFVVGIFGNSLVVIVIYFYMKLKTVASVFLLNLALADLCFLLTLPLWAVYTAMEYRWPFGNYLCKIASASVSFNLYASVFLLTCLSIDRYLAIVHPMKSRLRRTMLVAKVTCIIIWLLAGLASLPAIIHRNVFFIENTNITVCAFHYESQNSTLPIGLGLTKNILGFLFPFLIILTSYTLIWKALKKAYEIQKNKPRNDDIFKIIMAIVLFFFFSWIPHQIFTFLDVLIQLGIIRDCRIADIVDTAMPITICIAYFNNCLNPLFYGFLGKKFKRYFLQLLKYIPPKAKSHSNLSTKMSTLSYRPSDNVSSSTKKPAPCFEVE

Beta-galactosidase = Beta-galactosidase (Escherichia coli, UniProt Q8VNN2); experiment: beta-galactosidase enzyme inhibitors and activators, dose response, artefact control for CCR6 antagonist project, biochemical, E. coli enzyme, set 3 (AID 504712); assay type: functional
Chain of Beta-galactosidase (Q8VNN2 whole entry): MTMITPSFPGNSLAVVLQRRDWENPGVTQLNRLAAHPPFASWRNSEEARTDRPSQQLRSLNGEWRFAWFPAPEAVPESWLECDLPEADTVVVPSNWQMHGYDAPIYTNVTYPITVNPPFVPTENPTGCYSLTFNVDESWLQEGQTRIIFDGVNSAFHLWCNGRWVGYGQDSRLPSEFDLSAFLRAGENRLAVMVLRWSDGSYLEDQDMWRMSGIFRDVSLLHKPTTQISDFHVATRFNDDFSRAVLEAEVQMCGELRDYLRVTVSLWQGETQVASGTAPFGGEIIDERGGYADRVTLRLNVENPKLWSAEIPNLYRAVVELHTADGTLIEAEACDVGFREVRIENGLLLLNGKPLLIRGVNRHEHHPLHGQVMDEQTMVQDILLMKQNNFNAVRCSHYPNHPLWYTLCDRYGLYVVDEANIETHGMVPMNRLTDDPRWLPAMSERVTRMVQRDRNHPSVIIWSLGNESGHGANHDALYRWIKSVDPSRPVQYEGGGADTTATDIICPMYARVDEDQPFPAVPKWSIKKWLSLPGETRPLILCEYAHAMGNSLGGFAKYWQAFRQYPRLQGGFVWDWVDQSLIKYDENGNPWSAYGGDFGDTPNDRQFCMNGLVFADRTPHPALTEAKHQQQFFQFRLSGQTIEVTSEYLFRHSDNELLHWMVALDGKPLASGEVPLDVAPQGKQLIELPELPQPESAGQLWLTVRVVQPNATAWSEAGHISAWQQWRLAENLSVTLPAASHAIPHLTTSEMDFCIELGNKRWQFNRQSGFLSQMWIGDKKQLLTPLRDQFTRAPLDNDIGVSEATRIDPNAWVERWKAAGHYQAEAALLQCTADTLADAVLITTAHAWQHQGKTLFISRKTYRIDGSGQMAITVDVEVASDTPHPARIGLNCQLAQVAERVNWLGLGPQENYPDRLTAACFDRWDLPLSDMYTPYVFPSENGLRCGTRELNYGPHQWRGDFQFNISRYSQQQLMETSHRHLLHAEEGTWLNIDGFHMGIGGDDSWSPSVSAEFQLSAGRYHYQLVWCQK

[7] = biological target: C-C chemokine receptor type 6 (Homo sapiens, UniProt P51684); experiment: CCR6 receptor antagonists, dose response, cell-based, luminescent beta-arrestin readout (AID 504728); assay type: functional
Chain of C-C chemokine receptor type 6 (P51684 whole entry): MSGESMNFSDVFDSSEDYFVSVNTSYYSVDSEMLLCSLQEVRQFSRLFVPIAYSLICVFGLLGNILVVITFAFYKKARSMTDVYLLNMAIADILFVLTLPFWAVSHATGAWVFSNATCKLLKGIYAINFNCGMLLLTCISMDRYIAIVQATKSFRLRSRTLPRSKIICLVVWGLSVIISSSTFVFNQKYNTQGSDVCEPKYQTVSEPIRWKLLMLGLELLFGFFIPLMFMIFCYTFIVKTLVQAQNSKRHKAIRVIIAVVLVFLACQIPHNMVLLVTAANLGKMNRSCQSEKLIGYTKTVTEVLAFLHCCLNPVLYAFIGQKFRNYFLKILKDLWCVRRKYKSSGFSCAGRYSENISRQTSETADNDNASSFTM

[8] = Luminescence Cell-Based Dose Retest to Confirm Inhibitors of Cancer Stem Cells. [Related pubchem assays (depositor defined):AID2717, AID2721]; assay type: functional; conditions: Homo sapiens
SUMO-activating enzyme [9] = biological target: T3, SUMO-activating enzyme (Homo sapiens, UniProt Q9UBT2); experiment: SUMOylation inhibitor hit validation, confirmation, SUMOylation inhibitor project, biochemical, AlphaScreen (AID 2018); assay type: functional
T3 sequence (Q9UBE0 whole entry): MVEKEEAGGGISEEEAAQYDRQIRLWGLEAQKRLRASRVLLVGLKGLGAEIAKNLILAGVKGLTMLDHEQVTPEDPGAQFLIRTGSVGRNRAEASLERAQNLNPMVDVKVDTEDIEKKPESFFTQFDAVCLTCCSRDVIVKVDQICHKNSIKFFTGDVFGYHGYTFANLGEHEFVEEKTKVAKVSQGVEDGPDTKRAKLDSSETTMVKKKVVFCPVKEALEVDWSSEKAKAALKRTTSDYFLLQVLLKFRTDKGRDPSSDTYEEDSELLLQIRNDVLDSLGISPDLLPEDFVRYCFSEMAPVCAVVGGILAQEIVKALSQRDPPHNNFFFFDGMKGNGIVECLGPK
T3 sequence (Q9UBT2 whole entry): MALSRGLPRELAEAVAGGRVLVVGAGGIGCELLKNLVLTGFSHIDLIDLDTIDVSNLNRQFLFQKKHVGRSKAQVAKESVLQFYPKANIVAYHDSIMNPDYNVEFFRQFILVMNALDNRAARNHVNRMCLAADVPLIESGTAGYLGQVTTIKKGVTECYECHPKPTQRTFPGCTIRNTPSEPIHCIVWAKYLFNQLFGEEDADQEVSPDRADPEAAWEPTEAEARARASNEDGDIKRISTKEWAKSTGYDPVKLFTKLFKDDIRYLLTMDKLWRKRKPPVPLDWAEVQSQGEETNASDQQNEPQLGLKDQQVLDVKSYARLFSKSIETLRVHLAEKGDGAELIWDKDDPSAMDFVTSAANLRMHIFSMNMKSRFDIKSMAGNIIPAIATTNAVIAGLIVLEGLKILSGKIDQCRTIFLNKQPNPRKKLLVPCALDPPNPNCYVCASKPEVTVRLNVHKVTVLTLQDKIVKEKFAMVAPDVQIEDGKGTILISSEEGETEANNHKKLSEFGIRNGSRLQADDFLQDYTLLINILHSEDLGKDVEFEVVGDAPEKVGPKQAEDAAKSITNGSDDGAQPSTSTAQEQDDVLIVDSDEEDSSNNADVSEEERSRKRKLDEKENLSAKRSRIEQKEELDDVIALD

SUMO-activating enzyme [10] = biological target: T3, SUMO-activating enzyme; experiment: inhibitors of in vitro SUMOylation cascade, primary screen, biochemical, HTRF, uHTS (AID 2006); assay type: protein-complex assay
[11] = biological target: Neurotensin receptor type 1 (Homo sapiens, UniProt P30989); assay type: functional;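 further: Image-based confirmatory dose-response assay measuring agonist activity at NTR1; NTR1-expressing U2OS osteosarcoma cells imaged for beta-arrestin GFP spot formation; agonist potency where compounds increase beta-arrestin recruitment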
Chain of Neurotensin receptor type 1 (P30989 whole entry): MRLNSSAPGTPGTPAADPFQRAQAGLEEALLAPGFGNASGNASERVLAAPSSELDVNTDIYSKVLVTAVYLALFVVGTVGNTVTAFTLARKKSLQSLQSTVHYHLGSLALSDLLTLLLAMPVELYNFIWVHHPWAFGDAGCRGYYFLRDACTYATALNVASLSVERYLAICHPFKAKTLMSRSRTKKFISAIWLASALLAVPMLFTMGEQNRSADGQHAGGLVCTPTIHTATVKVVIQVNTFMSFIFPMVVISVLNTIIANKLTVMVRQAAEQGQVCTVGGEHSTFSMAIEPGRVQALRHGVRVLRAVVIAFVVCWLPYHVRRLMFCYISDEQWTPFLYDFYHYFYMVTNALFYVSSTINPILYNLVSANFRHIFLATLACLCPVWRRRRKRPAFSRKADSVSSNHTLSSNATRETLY

[12] = Shn3 3'UTR reporter inhibitors, dose response, cell-based, Clone20 osteoblasts, firefly luciferase, cherry-picked (AID 624132); assay type: functional;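 further: firefly luciferase luminescence from reporter carrying the Shn3 3'UTR in osteoblasts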
[13] = Artemis endonuclease inhibitor potency, dose response, biochemical, fluorescence intensity (AID 720701); assay type: functional;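 further: Artemis endonuclease enzyme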
[14] = biological target: Guanyl-specific ribonuclease T1 (Aspergillus oryzae (strain ATCC 42149 / RIB 40), UniProt P00651); experiment: RNase T1 inhibitors, dose response, counter-screen for TPT1 inhibitor project, biochemical, fluorescence polarization, 1536-well (AID 2167)
Chain of Guanyl-specific ribonuclease T1 (P00651 whole entry): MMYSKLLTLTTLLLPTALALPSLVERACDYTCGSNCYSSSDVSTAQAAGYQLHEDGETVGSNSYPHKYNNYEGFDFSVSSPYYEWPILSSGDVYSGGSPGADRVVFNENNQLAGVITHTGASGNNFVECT

INS1 = experiment: beta cell apoptosis inhibitors, cytokine rescue, dose response, luminescence, retest (AID 449756); assay type: functional, cell-based; conditions: Rattus norvegicus;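 further: cell death triggered by IL-1 beta plus TNF-alpha plus IFN-gamma mixture; protective hits raise ATP signal compared with cytokine alone wells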
Nonstructural protein 1 = Nonstructural protein 1 (Influenza A virus, UniProt Q194T2); assay type: functional, Influenza A virus (A/California/07/2009(H1N1))
Chain of Nonstructural protein 1 (Q194T2 whole entry): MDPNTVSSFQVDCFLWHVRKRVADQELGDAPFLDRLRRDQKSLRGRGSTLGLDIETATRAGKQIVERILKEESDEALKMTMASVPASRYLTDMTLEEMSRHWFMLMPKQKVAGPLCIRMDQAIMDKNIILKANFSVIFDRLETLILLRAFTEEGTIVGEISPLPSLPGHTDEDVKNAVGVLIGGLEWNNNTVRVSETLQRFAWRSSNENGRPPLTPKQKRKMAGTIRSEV

[15] = biological target: Likely tRNA 2'-phosphotransferase (Candida albicans (strain SC5314 / ATCC MYA-2876) (Yeast), UniProt Q5A7N4); experiment: TPT1 tRNA phosphotransferase inhibitors, dose response, biochemical, fluorescence polarization (AID 2160)
Chain of Likely tRNA 2'-phosphotransferase (Q5A7N4 whole entry): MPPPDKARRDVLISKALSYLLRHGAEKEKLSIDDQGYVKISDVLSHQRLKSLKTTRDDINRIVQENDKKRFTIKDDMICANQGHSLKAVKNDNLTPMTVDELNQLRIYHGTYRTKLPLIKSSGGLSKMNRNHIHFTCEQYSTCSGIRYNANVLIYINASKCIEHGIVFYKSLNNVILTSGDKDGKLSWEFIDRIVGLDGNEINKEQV

[16] = biological target: T4, Microphthalmia-associated transcription factor (Homo sapiens, UniProt O75030); experiment: TRPM1 promoter luciferase signal decrease, dose response, MITF inhibitor project, cell-based, SK-MEL-5, cherry-picked, set 3 (AID 493073); assay type: functional
T4 sequence (O75030 whole entry): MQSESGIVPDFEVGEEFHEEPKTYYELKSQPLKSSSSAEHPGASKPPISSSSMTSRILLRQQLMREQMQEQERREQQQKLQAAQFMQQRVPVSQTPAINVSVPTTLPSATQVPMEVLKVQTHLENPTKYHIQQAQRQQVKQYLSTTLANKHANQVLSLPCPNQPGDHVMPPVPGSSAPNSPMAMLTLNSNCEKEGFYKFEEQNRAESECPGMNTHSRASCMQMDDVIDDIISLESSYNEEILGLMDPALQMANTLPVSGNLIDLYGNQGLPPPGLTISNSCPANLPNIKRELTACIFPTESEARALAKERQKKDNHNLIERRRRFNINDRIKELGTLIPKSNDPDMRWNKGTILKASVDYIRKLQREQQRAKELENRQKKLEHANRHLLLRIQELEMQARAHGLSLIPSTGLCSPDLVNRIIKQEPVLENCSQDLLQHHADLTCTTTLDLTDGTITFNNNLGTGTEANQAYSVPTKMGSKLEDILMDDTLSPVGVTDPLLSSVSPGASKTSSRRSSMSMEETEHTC

[17] = insulin promoter down-regulators in MIN6 cells, imaging, high-content screening, mouse beta cells (AID 1628); assay type: functional
[18] = cytotoxicity in MIN6 insulinoma cells, dose response, cytotoxicity control, cell-based, mouse insulinoma (AID 2122); assay type: functional;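 further: confirmatory high-throughput counterscreen run to flag cytotoxic compounds; mouse MIN-6 beta cells carrying an insulin promoter eGFP reporter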
[19] = biological target: G-protein coupled receptor 55 (Homo sapiens, UniProt Q9Y2T6); experiment: GPR55 agonists via beta-arrestin recruitment, primary screen, imaging, U2OS cells, beta-arrestin-GFP redistribution (AID 1961); assay type: functional
Chain of G-protein coupled receptor 55 (Q9Y2T6 whole entry): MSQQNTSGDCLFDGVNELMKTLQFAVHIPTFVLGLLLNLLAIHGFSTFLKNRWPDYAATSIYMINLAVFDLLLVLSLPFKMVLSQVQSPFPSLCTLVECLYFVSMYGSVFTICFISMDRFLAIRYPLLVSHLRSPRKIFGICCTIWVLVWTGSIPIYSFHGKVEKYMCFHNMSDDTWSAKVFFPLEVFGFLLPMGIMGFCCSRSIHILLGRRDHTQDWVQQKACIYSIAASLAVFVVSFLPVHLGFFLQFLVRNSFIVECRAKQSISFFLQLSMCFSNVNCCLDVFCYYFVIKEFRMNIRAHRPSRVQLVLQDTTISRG

Cc1cccc(N2CCN(C(=O)c3ccc(CS(=O)(=O)c4ccccc4C)o3)CC2C)c1 (stereo not given)
IC50 [1]: 19.5 µM (active)
IC50 (J774.A1): 421 nM (active)

COc1cc(NC(=O)CN2C(=O)NC(c3ccccc3)(c3ccccc3)C2=O)cc(OC)c1
EC50 [2]: > 195 µM (not active)
AC50 (Vibrio harveyi [3]): 594 nM (active)
AC50 (Vibrio harveyi [4]): 770 nM (active)
AC50 (Vibrio harveyi [4]; Vibrio harveyi): 671 nM (active)

CC1=NOC(=O)/C1=C\c1ccc(-c2cc(Cl)ccc2Cl)o1
AC50 [5]: 9.55 µM (active)
EC50 [6]: > 100 µM (inactive)
IC50 (Beta-galactosidase): > 66.6 µM (inactive)
IC50 [7]: > 66.6 µM (inactive)
AC50 [8]: 1.04 µM (active)
IC50 (SUMO-activating enzyme [9]): 4.89 µM (active)
IC50 (SUMO-activating enzyme [10]): 11.5 µM (active)
EC50 [11]: 7.5 µM (active)
AC50 [12]: 5.69 µM (active)
IC50 [13]: > 20 µM (inactive)

Cn1cc(C(=O)N/N=C/c2c(O)ccc3ccccc23)ccc1=O
IC50 [14]: > 55.7 µM (not active)
IC50 [1]: > 80 µM (inactive)
AC50 (INS1): 774 nM (active)
IC50 (Nonstructural protein 1): > 100 µM (active)
IC50 [15]: > 55.7 µM (not active)
AC50 [16]: 2.55 µM (active)
IC50 [17]: 4.33 µM (active)
IC50 [18]: 4.04 µM (active)

CCN(CC)C(=O)CC(c1ccc2c(c1)OCO2)c1c(OC)cc(OC)c2c(-c3ccccc3)cc(=O)oc12 (stereo not given)
EC50 [19]: 2.72 µM (active)
